Tests used:
mu opioid receptor (MOR) [1] = target: T1, mu opioid receptor (MOR) (Homo sapiens, UniProt P35372); experiment: Hit Hunter cAMP signaling assay (adenylyl cyclase inhibition), PAM mode with EC20 endomorphin-1; assay type: cell-based
mu opioid receptor (MOR) [2] = target: T1, mu opioid receptor (MOR); experiment: PathHunter β-arrestin recruitment assay, PAM mode with EC20 endomorphin-1; assay type: cell-based
Procedure, shortened: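 β-Arrestin recruitment to the receptor was tracked by chemiluminescent β-galactosidase activity from complementing fragments (ED on receptor, EA on β-arrestin). Per-compound outputs were EC50 and percent maximal response.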

[3] = cAMP EC50, adenylyl cyclase inhibition
[4] = maximal response for adenylyl cyclase inhibition
[5] = maximal response for β-arrestin recruitment
[6] = β-arrestin recruitment, read-out: β-arr. EC50
[7] = adenylyl cyclase inhibition, read-out: cAMP EC50
[8] = maximal response, adenylyl cyclase inhibition
[9] = maximal response, β-arrestin recruitment
[10] = adenylyl cyclase inhibition, activity switching by MOR PAMs
[11] = adenylyl cyclase inhibition, activity switching by MOR PAMs, read-out: cAMP EC50
[12] = β-arrestin recruitment, activity switching by MOR PAMs
[13] = β-arrestin recruitment, activity switching by MOR PAMs, read-out: β-arrestin EC50

T1 sequence (P35372 whole entry): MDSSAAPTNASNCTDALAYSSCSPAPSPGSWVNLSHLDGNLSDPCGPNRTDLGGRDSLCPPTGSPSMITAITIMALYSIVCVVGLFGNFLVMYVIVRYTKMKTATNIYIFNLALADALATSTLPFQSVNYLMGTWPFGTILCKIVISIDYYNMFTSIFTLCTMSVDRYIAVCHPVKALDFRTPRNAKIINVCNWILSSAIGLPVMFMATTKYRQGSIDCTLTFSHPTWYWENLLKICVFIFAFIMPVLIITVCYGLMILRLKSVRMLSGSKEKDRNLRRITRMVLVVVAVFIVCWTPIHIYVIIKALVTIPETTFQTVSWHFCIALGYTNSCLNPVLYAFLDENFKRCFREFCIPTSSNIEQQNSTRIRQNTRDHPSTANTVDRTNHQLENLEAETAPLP

Row | Structure (SMILES) | EC50 (mu opioid receptor (MOR) [1]; [3]) | cAMP Max. Resp. (mu opioid receptor (MOR) [1]; [4]) | β-arr Max. Resp. (mu opioid receptor (MOR) [2]; [5]) | EC50 (mu opioid receptor (MOR) [2]; [6]) | EC50 (mu opioid receptor (MOR) [1]; [7]) | further results
1 | COc1ccc(C2CCCCN2c2nc(Cl)ncc2F)cc1OC (stereo not shown) [compound 294] | > 2.1 µM | F (F represents a maximal response of > 60%) | D (D represents a maximal response of < 40%) | > 2.1 µM | – | –
2 | OC1CCC(c2cc(F)cc(C(F)(F)F)c2)N(c2nc(Cl)ncc2F)C1 (stereo not shown) [compound 311] | 0.7 to 2.1 µM | F (F represents a maximal response of > 60%) | F (F represents a maximal response of > 60%) | > 2.1 µM | – | –
3 | COc1ccc(C2CC(C(F)(F)F)CN2S(=O)(=O)c2ccc(Cl)cc2)cc1Br (single isomer, unassigned) [Compound 119] | – | D (D represents a maximal response of < 40%) | E (E represents a maximal response of 40-60%) | > 2.1 µM | > 2.1 µM | –
4 | [N-]=[N+]=Nc1ccc(N2CCCCC2c2ccc(F)c(Cl)c2)cc1 (stereo not shown) [compound 462] | > 2.1 µM | – | – | > 2.1 µM | – | cAMP Max. Resp. (mu opioid receptor (MOR) [1]; [8]): D (D represents a maximal response of < 40%); β-arr Max. Resp. (mu opioid receptor (MOR) [2]; [9]): E (E represents a maximal response of 40-60%)
5 | Cc1ncc(Cl)c(C2CCCCN2c2nc(Cl)ncc2F)n1 (stereo not shown) [compound 392] | < 0.7 µM | D (D represents a maximal response of < 40%) | D (D represents a maximal response of < 40%) | < 0.7 µM | – | –
6 | Fc1cnc(Cl)nc1N1CCCCC1c1cccc2ncnn12 (stereo not shown) [compound 389] | < 0.7 µM | D (D represents a maximal response of < 40%) | D (D represents a maximal response of < 40%) | < 0.7 µM | – | –
7 | O=S(=O)(Cc1ccccc1Cl)N1C2CCC(C2)C1c1ccc(F)c(Br)c1 (stereo not shown) [Compound 183] | – | D (D represents a maximal response of < 40%) | E (E represents a maximal response of 40-60%) | > 2.1 µM | > 2.1 µM | –
8 | Fc1cnc(Cl)nc1N1C2CCC(C2)C1c1cccc(C(F)(F)F)n1 (stereo not shown) [compound 137] | > 2.1 µM | D (D represents a maximal response of < 40%) | D (D represents a maximal response of < 40%) | > 2.1 µM | – | –
9 | Cc1cnc(C2CCCCN2c2nc(Cl)ncc2F)o1 (stereo not shown) [compound 364] | < 0.7 µM | D (D represents a maximal response of < 40%) | D (D represents a maximal response of < 40%) | < 0.7 µM | – | –
10 | Fc1cnc(Cl)nc1N1CCCCC1c1cncnc1 (stereo not shown) [compound 378] | < 0.7 µM | D (D represents a maximal response of < 40%) | D (D represents a maximal response of < 40%) | < 0.7 µM | – | –
11 | O=S(=O)(c1ccc(Cl)cc1)N1CCCC(F)C1c1ccc(F)c(Br)c1 (stereo not shown) [Compound 29] | – | – | – | > 2.1 µM | > 2.1 µM | –
12 | Fc1cc(C2CC(F)CCN2c2nc(Cl)ncc2F)cc(C(F)(F)F)c1 (stereo not shown) [compound 196] | < 0.7 µM | F (F represents a maximal response of > 60%) | F (F represents a maximal response of > 60%) | < 0.7 µM | – | –
13 | O=S(=O)(c1ccc(Cl)cc1)N1CCCCC1c1ccnc(C(F)(F)F)c1 (racemic) [compound 57] | – | E (E represents a maximal response of 40-60%) | F (F represents a maximal response of > 60%) | > 2.1 µM | > 2.1 µM | cAMP Max Resp. (mu opioid receptor (MOR) [1]; [10]): E (E represents a maximal response of 40-60%); EC50 (mu opioid receptor (MOR) [1]; [11]): > 2.1 µM; β-arrestin Max Response (mu opioid receptor (MOR) [2]; [12]): F (F represents a maximal response of >60%); EC50 (mu opioid receptor (MOR) [2]; [13]): > 2.1 µM
14 | COc1ccc(C2CCCCN2c2nc(Cl)ncc2F)cc1C(F)(F)F (stereo not shown) [compound 289] | > 2.1 µM | D (D represents a maximal response of < 40%) | F (F represents a maximal response of > 60%) | 0.7 to 2.1 µM | – | –
15 | CN(C)c1cccc(C2CCCCN2Cc2cc(Cl)ccc2F)n1 (stereo not shown) [compound 149] | > 2.1 µM | E (E represents a maximal response of 40-60%) | F (F represents a maximal response of > 60%) | > 2.1 µM | – | –
16 | CCCC1(F)CCCN(c2nc(Cl)ncc2F)C1c1cccc(C(F)(F)F)c1 (stereo not shown) [compound 424] | – | – | – | > 2.1 µM | > 2.1 µM | cAMP Max. Resp. (mu opioid receptor (MOR) [1]; [8]): D (D represents a maximal response of < 40%); β-arr Max. Resp. (mu opioid receptor (MOR) [2]; [9]): F (F represents a maximal response of > 60%)
17 | Fc1ccc(Cl)cc1C1CCCCN1c1nc(Cl)ncc1F (stereo not shown) [compound 400] | < 0.7 µM | D (D represents a maximal response of < 40%) | D (D represents a maximal response of < 40%) | < 0.7 µM | – | –

Row | Structure (SMILES) | EC50 (mu opioid receptor (MOR) [1]; [3]) | cAMP Max. Resp. (mu opioid receptor (MOR) [1]; [4]) | β-arr Max. Resp. (mu opioid receptor (MOR) [2]; [5]) | EC50 (mu opioid receptor (MOR) [2]; [6]) | EC50 (mu opioid receptor (MOR) [1]; [7]) | further results
18 | N#Cc1cccc(N2CCCCC2c2ccc(F)c(Cl)c2)c1 (stereo not shown) [compound 218] | – | D (D represents a maximal response of < 40%) | E (E represents a maximal response of 40-60%) | 0.7 to 2.1 µM | > 2.1 µM | –
19 | COc1cccc(N2CCCCC2c2ccc(F)c(Cl)c2)c1 (stereo not shown) [compound 465] | > 2.1 µM | – | – | > 2.1 µM | – | cAMP Max. Resp. (mu opioid receptor (MOR) [1]; [8]): D (D represents a maximal response of < 40%); β-arr Max. Resp. (mu opioid receptor (MOR) [2]; [9]): E (E represents a maximal response of 40-60%)
20 | Fc1c(Cl)cccc1C1CCCCN1c1ccnc(Cl)n1 (stereo not shown) [compound 405] | < 0.7 µM | D (D represents a maximal response of < 40%) | D (D represents a maximal response of < 40%) | < 0.7 µM | – | –
21 | COc1ccc(C2CCCCN2c2ncncc2F)cc1Br (stereo not shown) [compound 233] | > 2.1 µM | F (F represents a maximal response of > 60%) | F (F represents a maximal response of > 60%) | > 2.1 µM | – | –
22 | C=C1CCN(c2nc(Cl)ncc2F)C(c2cc(F)cc(C(F)(F)F)c2)C1 (stereo not shown) [compound 200] | < 0.7 µM | E (E represents a maximal response of 40-60%) | F (F represents a maximal response of > 60%) | < 0.7 µM | – | –
23 | CC1CCN(S(=O)(=O)c2ccc(Cl)cc2)C1c1ccc(Cl)cc1 (mixture of isomers) [Compound 88] | – | D (D represents a maximal response of < 40%) | E (E represents a maximal response of 40-60%) | > 2.1 µM | > 2.1 µM | –
24 | Fc1cnc(Cl)nc1N1CCCCC1c1cnc2ccccn12 (stereo not shown) [compound 336] | < 0.7 µM | D (D represents a maximal response of < 40%) | D (D represents a maximal response of < 40%) | < 0.7 µM | – | –
25 | COc1ccc(C2C(F)CCCN2c2nc(Cl)ncc2F)cc1Br (stereo not shown) [compound 212] | > 2.1 µM | E (E represents a maximal response of 40-60%) | F (F represents a maximal response of > 60%) | > 2.1 µM | – | –
26 | COc1ccc(C2CCCCN2S(C)(=O)=O)cc1Br (stereo not shown) [compound 16] | > 2.1 µM | D (D represents a maximal response of < 40%) | D (D represents a maximal response of < 40%) | > 2.1 µM | – | –
27 | O=S(=O)(c1ccc(Cl)cc1)N1CCCCC1c1ccc2c(c1)OCO2 (stereo not shown) [compound 44] | – | E (E represents a maximal response of 40-60%) | F (F represents a maximal response of > 60%) | > 2.1 µM | > 2.1 µM | allosteric activity for cAMP signaling (mu opioid receptor (MOR) [1]; EC20 endomorphin-1 concentration of 0.45 nM): moderate positive allosteric activity; EC50 (mu opioid receptor (MOR) [1]; adenylyl cyclase inhibition, Table 3, read-out: cAMP EC50): 3.73 µM; cAMP Max Resp. (mu opioid receptor (MOR) [1]; maximal response for adenylyl cyclase inhibition, Table 3): 57; allosteric activity for β-arrestin recruitment (mu opioid receptor (MOR) [2]; EC20 endomorphin-1 concentration of 4.5 nM): moderate positive allosteric activity; signaling preference β-arrestin vs cAMP (mu opioid receptor (MOR) [2]; comparison of β-arrestin and cAMP assays): equivalent effects on β-arrestin recruitment and cAMP signaling; β-arr. Max Resp. (mu opioid receptor (MOR) [2]; maximal response for β-arrestin recruitment, Table 3): 99; EC50 (mu opioid receptor (MOR) [2]; β-arrestin recruitment, Table 3, read-out: β-arr. EC50): 5.67 µM
28 | Fc1ccc(C2CCCCN2c2nc(Cl)ncc2F)cc1C(F)F (stereo not shown) [compound 299] | < 0.7 µM | F (F represents a maximal response of > 60%) | F (F represents a maximal response of > 60%) | 0.7 to 2.1 µM | – | –
29 | Fc1cnc(Cl)nc1N1CCCCC1c1cccc(Cl)n1 (stereo not shown) [compound 276] | – | D (D represents a maximal response of < 40%) | E (E represents a maximal response of 40-60%) | – | – | EC50 (mu opioid receptor (MOR) [1]): 0.7 to 2.1 µM; EC50 (mu opioid receptor (MOR) [2]; β-arr. EC50, β-arrestin recruitment): > 2.1 µM
30 | O=S(=O)(c1ccc(Cl)cc1)N1CCCCC1c1cc(F)cc(C(F)(F)F)c1 (racemic) [compound 72] | – | D (D represents a maximal response of < 40%) | F (F represents a maximal response of > 60%) | 0.7 to 2.1 µM | < 0.7 µM | cAMP Max Resp. (mu opioid receptor (MOR) [1]; [10]): D (D represents a maximal response of < 40%); EC50 (mu opioid receptor (MOR) [1]; [11]): < 0.7 µM; β-arrestin Max Response (mu opioid receptor (MOR) [2]; [12]): F (F represents a maximal response of >60%); EC50 (mu opioid receptor (MOR) [2]; [13]): 0.7 to 2.1 µM
31 | CNc1cccc(C2CCCCN2Cc2cc(Cl)ccc2F)n1 (stereo not shown) [compound 168] | > 2.1 µM | F (F represents a maximal response of > 60%) | F (F represents a maximal response of > 60%) | > 2.1 µM | – | –
32 | O=S(=O)(c1ccc(Cl)cc1)N1CCCCC1c1ccc(F)c(Br)c1 (single isomer, unassigned) [compound 446] | – | – | – | > 2.1 µM | > 2.1 µM | cAMP Max. Resp. (mu opioid receptor (MOR) [1]; [8]): E (E represents a maximal response of 40-60%); β-arr Max. Resp. (mu opioid receptor (MOR) [2]; [9]): F (F represents a maximal response of > 60%)
33 | CN(C)c1ncc(F)c(N2CCCCC2c2cccc(F)n2)n1 (stereo not shown) [compound 242] | > 2.1 µM | D (D represents a maximal response of < 40%) | D (D represents a maximal response of < 40%) | > 2.1 µM | – | –
